{"source": "patent US12295970B2", "about": "“Imidazoquinoline compounds and prodrugs thereof” (UNIVERSITY OF KANSAS, priority 2019, dated 2025)", "key": {"hTLR8": {"biological_target": "T1, hTLR8 (Homo sapiens, UniProt Q9NR97)", "T1 construct": "host or cells: HEK293 (HEK-Blue hTLR8)", "T1 sequence (Q9NR97 27-1041)": "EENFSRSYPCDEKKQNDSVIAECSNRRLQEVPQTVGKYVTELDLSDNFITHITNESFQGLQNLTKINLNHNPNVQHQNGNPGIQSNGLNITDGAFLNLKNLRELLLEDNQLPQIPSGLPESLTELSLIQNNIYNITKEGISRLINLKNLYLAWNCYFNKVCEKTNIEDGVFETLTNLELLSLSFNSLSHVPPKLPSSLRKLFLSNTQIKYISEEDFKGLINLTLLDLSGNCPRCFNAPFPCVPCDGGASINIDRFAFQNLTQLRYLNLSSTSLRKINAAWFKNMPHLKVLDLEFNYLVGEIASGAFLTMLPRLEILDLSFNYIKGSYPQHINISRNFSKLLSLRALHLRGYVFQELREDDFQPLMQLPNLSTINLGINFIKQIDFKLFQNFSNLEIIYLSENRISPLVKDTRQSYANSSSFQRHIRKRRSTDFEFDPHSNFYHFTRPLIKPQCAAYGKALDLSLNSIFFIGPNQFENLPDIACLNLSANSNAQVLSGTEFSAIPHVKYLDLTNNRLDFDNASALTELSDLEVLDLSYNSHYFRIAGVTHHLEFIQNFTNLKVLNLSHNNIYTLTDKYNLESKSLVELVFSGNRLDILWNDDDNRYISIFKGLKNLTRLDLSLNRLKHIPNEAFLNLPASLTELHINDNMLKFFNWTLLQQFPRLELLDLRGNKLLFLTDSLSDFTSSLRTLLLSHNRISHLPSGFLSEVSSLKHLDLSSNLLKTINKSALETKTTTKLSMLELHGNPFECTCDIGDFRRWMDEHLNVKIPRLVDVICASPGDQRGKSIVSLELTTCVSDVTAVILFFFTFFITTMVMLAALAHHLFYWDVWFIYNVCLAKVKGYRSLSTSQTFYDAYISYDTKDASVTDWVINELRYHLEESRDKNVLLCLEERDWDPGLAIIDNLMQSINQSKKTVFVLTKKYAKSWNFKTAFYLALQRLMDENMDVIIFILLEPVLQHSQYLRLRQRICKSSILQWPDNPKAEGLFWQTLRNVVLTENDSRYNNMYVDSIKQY", "experiment": "SEAP reporter assay for hTLR-8 activity (HEK-Blue hTLR8 cells)", "format": "cell-based", "protocol": "TLR activation induces NF-κB production and subsequent SEAP secretion, which is measured using HEK-Detection media (InvivoGen) containing a colorimetric substrate for SEAP (UV-Vis, 637 nm).\nThe experiments followed manufacturer protocol as follows: SEAP levels were measured via absorbance at 637 nm using HEK-Blue Detection cell culture medium (InvivoGen), which contains a SEAP-specific colorimetric substrate. Compound stock solutions were first diluted in sterile DMSO at a concentration of 10 mM. Lower concentrations were prepared by serial dilution of the initial 10 mM stock samples into sterile DMSO and these solutions (22 μL) were subsequently diluted into sterile H2O (198 μL) using a BioTek Precision XS pipetting system. HEK-Blue hTLR7, HEK-Blue hTLR8, Null 1−k, and Null 1 cell suspensions in sterile HEK-Blue Detection medium were prepared at a density of 220,000 cells per mL. Clear bottom, 96-well tissue culture treated plates (Corning) were seeded with hTLR7 and Null 1−k or hTLR8 and Null 1 cell suspensions (180 μL/well), after which 20 μL of the various sample concentrations in 10% v/v DMSO/H2O were added (20 μL) in quadruplicate wells to yield the desired testing concentration in 1% v/v DMSO cell suspension. Plates were incubated at 37° C. and 5% CO2 in the dark. Absorbance measurements were taken at 637 nm at 12 hours, 4 replicates per concentration point, per cell line (hTLR7, hTLR8, Null 1−k, Null 1). Three independent measurements on different days were performed for each analog.\nCorresponding well absorbance values for each concentration tested were averaged with respect to days tested, and the average relative NF-κB induction (UV-Vis, 637 nm) of the null cell lines (Null 1-k or Null 1) were subtracted from the respective average TLR expressing cell line (hTLR7 or hTLR8) absorbance averages. […] The three independent, normalized averages for each analog were then pooled, and the data was fit using the Hill-Slope model (GraphPad Prism v7.0) using the non-linear fit from the [Agonist] vs. response—Variable Slope (four parameters) with a hill slope constrained to less than 3."}, "[1]": {"tested_on": "canine peripheral blood mononuclear cells (cPBMCs)", "experiment": "Cytokine production in canine PBMCs by ELISA (Example 2)", "format": "cell-based", "conditions": "± SD, 20 μM, 29 hours, ELISA, triplicate", "protocol": "The imidazoquinolines were further screened for cytokine production in canine peripheral blood mononuclear cells (cPBMCs). […] TNFα and IL-12 were chosen as they are typically seen in a Th-1 cytokine response.\nPeripheral blood from a healthy canine donor was obtained with appropriate informed consent of the owner and under approved institutional guidelines. Blood (8 mL per tube) was drawn via sterile venipuncture into a BD Vacutainer cell preparation tube containing sodium heparin (BD Biosciences). PBMCs were isolated within one hour following procurement by density gradient centrifugation according to the manufacturer protocol and resuspended to 2.22×10^6 cells/mL in sterile RPMI 1640 medium with L-glutamine (Gibco) supplemented with 100 U/mL penicillin, 100 μg/mL streptomycin (Corning) and 10% (v/v) heat-inactivated Fetalgro (RMBIO). Corning 3917, 96-well tissue culture treated plates were seeded with the PBMC suspension (180 μL/well), 20 μL of the serially diluted TLR agonists were added in triplicate to yield the desired concentrations in a 1% (v/v) DMSO cell suspension. Cells were incubated at 37° C. in 5% CO2 for 9 hours (FIGS. 3A-3D) or 29 hours (Table 2) after which supernatants were removed and frozen at −80° C. Cytokine secretion levels were measured by ELISA (Duoset, R&D Systems) according to the manufacturer protocol. Samples and standards (n=3) were thawed and plated onto a Maxisorp flat-bottom, 384-well plate (Thermo Scientific) using a BioTek Precision XS pipetting system. Cytokine concentrations were determined by a hyperbolic or four-parameter logistic non-linear regression of the recombinant standards and subsequent interpolation using Graphpad Prism 7.0."}}}
{"compound": "CCOCc1nc2c(N)nc3ccccc3c2n1CC(C)(C)O", "note": "[Compound 2, resiquimod, reference compound]", "values": [{"measurement": "agonist for TLR8 receptor (in words)", "setting": "hTLR8", "result": "agonists"}, {"measurement": "Cytokine IFNg", "setting": "[1]", "result": "26 ± 7", "unit": "pg/mL"}, {"measurement": "Cytokine IL-2", "setting": "[1]", "result": "120 ± 12", "unit": "pg/mL"}, {"measurement": "Cytokine IL-6", "setting": "[1]", "result": "380 ± 80", "unit": "pg/mL"}, {"measurement": "Cytokine IL-10", "setting": "[1]", "result": "21 ± 2", "unit": "pg/mL"}, {"measurement": "Cytokine IL-12", "setting": "[1]", "result": "2800 ± 520", "unit": "pg/mL"}, {"measurement": "Cytokine TNFa", "setting": "[1]", "result": "190 ± 30", "unit": "pg/mL"}]}
